# Data from PubChem BioAssay (NCI).
# Values joined by “and” are separate entries in the source; they are usually repeats but may differ in a detail not shown here. Equal entries are not always repeated.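 Tested at 5 concentrations; 48 h exposure; 96-well plates; endpoints linearly interpolated, else capped at highest concentration. GI50 = concentration required for 50% inhibition of growth. TGI is the concentration that stops growth completely.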
# Columns and labels:
# Assay in all cases: inhibition of tumour cell growth, NCI panel, 48 h
# [1] = test system: CCRF-CEM leukemia
# [2] = test system: HT29 colon
# [3] = test system: OVCAR-8 ovarian
# [4] = test system: SK-MEL-28 melanoma
# [5] = test system: SK-MEL-5 melanoma
# [6] = test system: SW-620 colon
# [7] = test system: DU-145 prostate
# [8] = test system: MDA-MB-231 breast
# [9] = test system: NCI-H226 lung
# [10] = test system: NCI-H522 lung
Structure (SMILES),TGI [1],TGI [2],TGI [3],TGI [4] [µM],TGI [5],TGI [6] [µM],TGI [7] [µM],TGI [8] [µM],TGI [9] [µM],TGI [10],GI50 [7] [µM],GI50 [8] [µM],GI50 [9] [µM],GI50 [10],GI50 [3] [µM],GI50 [4] [µM],GI50 [5] [µM],GI50 [6] [µM],GI50 [1] [µM],GI50 [2]
COc1cc(Cl)c2c3c(c(C(C)=O)oc13)CCC2,> 100 µM,> 100 µM,> 100 µM,> 100,> 100 µM,> 100,,,,,,,,,,,,,,
Nc1ccc(N(S(=O)(=O)c2ccccc2)S(=O)(=O)c2ccccc2)c(Cl)c1,,> 100 µM,> 100 µM,> 100,50.4 µM,> 100,> 100,> 100,> 100,> 100 µM,,,,,,,,,,
COc1cc(/C=C(\C#N)C(=O)c2ccccc2)ccc1OCc1ccccc1,> 100 µM,,> 100 µM,> 100,> 100 µM,> 100,,,> 100,> 100 µM,,,,,,,,,,
Cc1cc(C)c([O-])c(CN(C)CCN(C)Cc2cc(C)cc(C)c2[O-])c1.O=C([O-])c1cccc(C(=O)[O-])n1.[Ti+4],,,> 100 µM,8.37,> 100 µM,> 100,> 100,> 100,> 100,5.47 µM,4.57,3.42,2.35,2.08 µM,2.8,2.42,2.9,2.89,,
CC(O)c1cccc(NCc2c3ccccc3c(=O)n3c2oc2ccccc23)c1 (stereo unspecified),> 100 µM,> 100 µM,36.2 µM,35.6,31.6 µM,> 100,> 100,47.9,,45.1 µM,5.46,13.3,,5.55 µM,8.04,6,4.87,13.6,3.34,35.6 µM
CC(=O)c1cccc(N2COC(C)(C)c3nc4ccccc4n3C2)c1,> 100 µM,> 100 µM,> 100 µM,> 100,,> 100,,,> 100,> 100 µM,,,,,,,,,,
Cc1c(NC(=O)C(C)(C)Br)c(=O)oc2c(C)c3occc(=O)c3cc12,> 100 µM,> 100 µM,> 100 µM,> 100,> 100 µM,> 100,,,71.9,,,,,,,,,,,
CCCCCCCCC[C@@H]1CC(=O)OCC2OC(O[C@H](CCCCCCCCC)CC(=O)OCC3OC(O[C@H](CCCCCCCCC)CC(=O)OCC4OC(O1)C(O)C(O)C4O)C(O)C(O)C3O)C(O)C(O)C2O (stereo partly specified),19.4 µM,24.3 µM,28.7 µM,18.6,25.5 µM,17.8,,,24.6,23.5 µM,,,,,,,,,,
Nc1c(C(=O)c2ccc(Cl)cc2)sc(Nc2ccccc2)c1-c1nc2ccccc2s1,> 100 µM,,> 100 µM,> 100,> 100 µM,> 100,,> 100,> 100,> 74.1 µM,,2.35,1.58,3.13 µM,2.68,4.31,16.6,1.2,13.9,
CCNC(=O)CCN(C(=O)O)S(=O)(=O)c1ccc(NC(=O)c2ccccc2)cc1,> 100 µM,> 100 µM,> 100 µM,> 100,> 100 µM,32,,,> 100,> 100 µM,,,,,,,,,,
CC/C(C)=C1\CCC(CN2CCOCC2)C1=O (stereo unspecified),32 µM,39.9 µM,50.6 µM,32,78.4 µM,34.5,,,> 100,,,,,,,,,,,
CC1C[C@@]2(c3ccccc3)C(=O)CCC[C@H]2N1 (stereo partly specified),> 100 µM,> 100 µM,> 100 µM,> 100,> 100 µM,> 100,,,> 100,> 100 µM,,,,,,,,,,
CC1=C(C(=O)Nc2ccccc2C)C(c2ccc(Cl)c(Cl)c2)C(C(=O)Nc2ccccc2C)=C(C)N1,54.8 µM,57.7 µM,> 100 µM,71.1,31.8 µM,> 100,,,43.8,29.1 µM,,,,,,,,,,
O=C1OC(CC(=O)c2ccc(Cl)c(Cl)c2)C(Cl)=C1Cl (stereo unspecified),62.5 µM,> 100 µM,> 100 µM,> 100,> 100 µM,> 100,,,> 100,72.6 µM,,,,,,,,,,
O=C(/C=C/c1ccc([N+](=O)[O-])o1)N1CCN(Cc2ccccc2)CC1,27.4 µM,31.5 µM,28.4 µM,16.9,22.4 µM,21.6,,,,8.16 µM,,,,,,,,,,
Cc1c[nH]c2c(O)cc3c(c12)[C@H](CCl)CN3C(=O)c1cc2cc(NC(=O)Nc3ccc4[nH]c(C(=O)N5C[C@@H](CCl)c6c5cc(O)c5[nH]cc(C)c65)cc4c3)ccc2[nH]1,,> 100 µM and 0.00887 µg/mL,16.3 µM and 2e-06 µg/mL and 0.000888 µg/mL,,26.6 nM and 25.5 µM and 0.00138 µg/mL,,,54.6,15.9,20.2 nM and 2e-06 µg/mL,0.000923,0.0176,,4.49 nM and 8.9e-07 µg/mL,,,,0.0068,,0.00416 ng/mL
COC(=O)C1C(C(=O)OC)C2(OC)c3ccccc3-c3ccccc3C12 (stereo unspecified),64.3 µM,> 100 µM,> 100 µM,> 100,78.7 µM,> 100,,,> 100,88.8 µM,,,,,,,,,,
O=S(=O)(N/N=C/c1ccc(/C=N/NS(=O)(=O)c2ccccc2)cc1)c1ccccc1,90.2 µM,> 100 µM,> 100 µM,> 100,> 100 µM,,,,> 100,,,,,,,,,,,
CCOC(=O)C(N)C[S][Sn]([CH3])([CH3])[Cl] (stereo unspecified),> 100 µM,> 100 µM,> 100 µM,> 100,> 100 µM,> 100,,,> 100,38.4 µM,,,> 100,18.4 µM,> 100,> 100,> 100,> 100,> 55.2,> 100 µM
CCCCOC(=O)NC(=O)c1cn(CCCOC(=O)CCCCCCCCC(=O)OCCCn2cc(C(=O)NC(=O)OCCCC)c(=O)[nH]c2=O)c(=O)[nH]c1=O,> 100 µM,> 100 µM,> 100 µM,> 100,> 100 µM,> 100,,,> 100,,,,,,,,,,,
NNC(=O)/C(=C/c1ccc(Cl)c(Cl)c1)NC(=O)c1ccccc1,> 100 µM,> 100 µM,> 100 µM,> 100,> 100 µM,> 100,,,> 100,,,,,,,,,,,

Structure (SMILES),TGI [1],TGI [2],TGI [3],TGI [4] [µM],TGI [5],TGI [6] [µM],TGI [7] [µM],TGI [8] [µM],TGI [9] [µM],TGI [10],GI50 [7] [µM],GI50 [8] [µM],GI50 [9] [µM],GI50 [10],GI50 [3] [µM],GI50 [4] [µM],GI50 [5] [µM],GI50 [6] [µM],GI50 [1] [µM],GI50 [2]
NC(=O)C(=Cc1ccc(C(O)P(=O)(O)O)cc1)C(N)=O (stereo unspecified),,> 100 µM,> 100 µM,> 100,> 100 µM,> 100,,,,> 100 µM,,,,,,,,,,
O=[N+]([O-])c1cc(Cl)c(Cl)c([N+](=O)[O-])c1Cl,> 100 µM,4 µM,2.97 µM,3.14,3.47 µM,3.36,2.99,3.79,7.16,,1.63,1.81,2.61,,1.34,1.74,1.73,0.763,0.236,1.18 µM
COc1ccccc1N1C(=O)/C(=C/c2ccc(N(CCC#N)CCC#N)cc2C)N=C1c1cc([N+](=O)[O-])ccc1Cl,> 100 µM,> 100 µM,> 100 µM,> 100,> 100 µM,,,,> 100,> 100 µM,,,,,,,,,,
O=[N+]([O-])c1cccc(C2N3CCCCC3[C@@H]3c4[nH]c5ccccc5c4CCN23)c1 (stereo partly specified),41 µM,19.8 µM,> 100 µM,29.8,27.2 µM,> 100,,,,,,,,,,,,,,
CCCCc1c2c(nc3c1CCC/C3=C\c1ccccc1)C(=O)CCC2,61.7 µM,31.4 µM,> 100 µM,41.8,30.4 µM,45,,,45.3,29.5 µM,,,,,,,,,,
COc1ccc([N+]2=NC(c3ccc([N+](=O)[O-])cc3)=NN(c3ccccc3)C2)cc1,92.8 µM and 52.1 µM,> 100 µM,> 100 µM,> 100,61.5 µM and 83.9 µM,> 100,,,> 100,5.87 µM and 10.5 µM,,,,,,,,,,
CC(C)CS(=O)(=O)/C(=C(\c1ccc(Br)cc1)S(=O)(=O)CC(C)C)c1ccc(Br)cc1,> 100 µM,> 100 µM,> 100 µM,> 100,2.8 µM,> 100,,,> 100,> 100 µM,,,,,,,,,,
CCN(CC)CCC(=O)NC1c2ccc(Cl)cc2Oc2c(C)cccc21 (stereo unspecified),37 µM,28.9 µM,31.4 µM,27.9,26.1 µM,33.2,32.9,40.8,,31.6 µM,,,,,,,,,,
CCC1(CC)C(=O)OC(=O)C1(CC)CC,> 100 µM,> 100 µM,> 100 µM,> 100,> 100 µM,> 100,> 100,> 100,,> 100 µM,,,,,,,,,,
c1ccc2c(c1)CCC/C2=N\OCC1CO1 (stereo unspecified),> 100 µM,> 100 µM,> 100 µM,,> 100 µM,> 100,,,,,,,,,,,,,,
O=[N+]([O-])c1cccc(/C=N\NS(=O)(=O)c2ccc(Cl)cc2)c1O,> 100 µM,> 100 µM,> 100 µM,> 100,> 100 µM,> 100,,,,> 100 µM,,,,,,,,,,
CCOC(=O)NC(=O)c1cn(CC(=O)NCC(=O)NCC(=O)NCCCN2CCN(CCCNC(=O)CNC(=O)CNC(=O)Cn3cc(C(=O)NC(=O)OCC)c(=O)[nH]c3=O)CC2)c(=O)[nH]c1=O,> 100 µM,> 100 µM,> 100 µM,> 100,> 100 µM,> 100,,,,> 100 µM,,,,,,,,,,
COC(=O)c1s/c(=N\C(=S)N(C)C)n(-c2ccccc2)c1C(=O)OC,,> 100 µM,> 100 µM,> 100,> 100 µM,> 100,,,> 100,> 100 µM,,,,,,,,,,
O=C(Nc1cc(Cl)c(Cl)cc1Cl)C(=O)C1C=CCS1(=O)=O (stereo unspecified),> 100 µM,> 100 µM,> 100 µM,> 100,> 100 µM,> 100,,,> 100,> 100 µM,,,,,,,,,,
O=C1c2ccccc2-c2cccc3ccc(Cc4ccc5ccccc5c4)c1c23,> 100 µM,> 100 µM,> 100 µM,> 100,> 100 µM,> 100,,,,> 100 µM,,,,,,,,,,
CC(=O)OCC1OC(N2C(=O)C(=O)c3cc(C)ccc32)C(OC(C)=O)C(OC(C)=O)C1OC(C)=O (stereo unspecified),> 100 µM,> 100 µM,> 100 µM,91.8,> 100 µM,> 100,,,> 100,> 100 µM,,,,,,,,,,
COc1ccc(-c2onc(-c3ccc([N+](=O)[O-])cc3)c2C2=NCCN2)cc1,> 100 µM,> 100 µM,> 100 µM,> 100,> 100 µM,> 100,,,> 100,,,,,,,,,,,
C=CC1(C(=O)O)CCC(C(C)(C)C)CC1 (stereo unspecified),,> 100 µM,> 100 µM,,> 100 µM,> 100,,,> 100,> 100 µM,,,,,,,,,,
COc1cc2c(cc1OCCCOc1cc3c(cc1OC)C(=O)N1C[C@H](F)C[C@H]1C=N3)N=C[C@@H]1C[C@@H](F)CN1C2=O,51.7 µM,41.9 µM,18.5 µM,29.9,,20,14.7,31.3,,4.59 µM,3.44,16,,1.88 µM,6.3,15.7,,4.2,3.8,17.3 µM
Cc1[nH]c2ccccc2c1C1Cc2ccccc2N1C(=O)/C=C\C(=O)O (stereo unspecified),94.1 µM,> 100 µM,,,88.3 µM,> 100,,,> 100,77.4 µM,,,,,,,,,,
COc1ccc(NC(=O)C(=O)C(C(=O)c2ccccc2)C2OC(=O)c3ccccc32)c([N+](=O)[O-])c1 (stereo unspecified),> 100 µM,> 100 µM,> 100 µM,> 100,> 100 µM,> 100,,,> 100,> 100 µM,,,,,,,,,,
